What was measured:
[1] = tested on: VZV; type: cell-based, varicella zoster virus; conditions: HEL cell cultures
[2] = tested on: HCMV; type: cell-based, human cytomegalovirus; conditions: HEL cell cultures

Structure (SMILES): O=C(Cn1c(=O)ccn(CCCCCOc2ccccc2)c1=O)Nc1ccc(Oc2ccccc2)cc1 [Compound 7a, 2-[2,6-Dioxo-3-(5-phenoxypentyl)-3,6-dihydropyrimidin-1(2H)-yl]-N-(4-phenoxyphenyl)acetamide]
- anti-VZV activity (in words) [1]: inactive

Structure (SMILES): O=C(Cn1c(=O)c(I)cn(CCCCCOc2ccc(Br)cc2)c1=O)Nc1ccc(Oc2ccccc2)cc1 [Compound 7j, 2-[3-[5-(4-Bromophenoxy)pentyl]-5-iodo-2,6-dioxo-3,6-dihydropyrimidin-1(2H)-yl]-N-(4-phenoxyphenyl)acetamide]
- anti-VZV activity (in words) [1]: completely inactive
- anti-HCMV activity (in words) [2]: completely inactive

Structure (SMILES): O=C(Cn1c(=O)ccn(CCCCCCc2ccccc2)c1=O)Nc1ccc(Oc2ccccc2)cc1 [Compound 13, 2-[2,6-Dioxo-3-(6-phenylhexyl)-3,6-dihydropyrimidin-1(2H)-yl]-N-(4-phenoxyphenyl)acetamide]
- anti-VZV activity (in words) [1]: loss of activity
- anti-HCMV activity (in words) [2]: loss of activity

Structure (SMILES): O=C(Cn1c(=O)ccn(CCCCOCc2ccc(Br)cc2)c1=O)Nc1ccc(Oc2ccccc2)cc1 [Compound 17, 2-[3-[4-(4-Bromobenzyloxy)butyl]-2,6-dioxo-3,6-dihydropyrimidin-1(2H)-yl]-N-(4-phenoxyphenyl)acetamide]
- anti-VZV activity (in words) [1]: loss of activity

Structure (SMILES): O=C(Cn1c(=O)ccn(COCCOCc2ccc(Br)cc2)c1=O)Nc1ccc(Oc2ccccc2)cc1 [Compound 20, 2-[3-[[2-(4-Bromobenzyloxy)ethoxy]methyl]-2,6-dioxo-3,6-dihydropyrimidin-1(2H)-yl]-N-(4-phenoxyphenyl)acetamide]
- anti-VZV activity (in words) [1]: loss of activity
- anti-HCMV activity (in words) [2]: completely inactive

Structure (SMILES): O=C(Cn1c(=O)ccn(Cc2ccc(Oc3ccc(Br)cc3)cc2)c1=O)Nc1ccc(Oc2ccccc2)cc1 [Compound 23, 2-[3-[4-(4-Bromophenoxy)benzyl]-2,6-dioxo-3,6-dihydropyrimidin-1(2H)-yl]-N-(4-phenoxyphenyl)acetamide]
- anti-VZV activity (in words) [1]: loss of activity
